The text below walks through data of patent publication US9504745B2, “Compositions and methods for cancer treatment using targeted carbon nanotubes” (The Board of Regents of the University of Oklahoma, priority 2007, dated 2016).

Like-named read-outs stand apart in the source and are kept apart here.

The subject of data set [1] is 4T1 mouse mammary tumors. Description: In vivo laser treatment of implanted 4T1 mammary tumors in mice with SWNT-annexin V complex. The arrangement: species or system BALB/cJ mice.
Experimental: In another embodiment, female BALB/cJ mice, age 6 weeks (received from Jackson Laboratory (Bar Harbor, Me.) were treated. Animal experimentation was not started until the animals were 9 weeks old. The animals were kept in a dedicated room in the animal facility located in the Zoology building of the University of Oklahoma. All of the protocols used involving animals were previously submitted and approved by the Institutional Animal Care and Use Committee (IACUC). All of the animals were placed in appropriate cages with food and water in an adequate environment. Each cage hosted five animals. The anesthetics used were ketamine (100 mg/ml) and xylazine (20 mg/ml). In order to prepare the anesthetic solution, 1 ml of ketamine (100 mg/ml) was mixed with 0.5 ml of xylazine (20 mg/ml) and 8.5 ml of sterile saline solution (0.9% NaCl). The dosage used for each animal was equal to 0.1 ml of the stock solution per 10 grams of body weight. Prior to anesthetizing the animals, each of them was weighted using a scale.
In order to evaluate the ability to eradicate the tumors using this therapy in vivo, it was necessary to implant a suitable cancer cell line in the animals. The 4T1 cell line was chosen for this study, since these cells have the ability to replicate at a fast rate and also develop visible tumors in BALB/c mice in a matter of less than one week after implantation. […] After having the eight T-75 flasks growing for 2 days, there are plenty of cells to inject the animals, for each test. The cells are then lifted from the flasks using ACCUTASE® solution (Innovative Cell Technologies, San Diego, Calif.), using the same procedure as for human endothelial cells. […] Knowing that it is necessary to inject 5×10^5 cells/animal (volume=100 μl), the total number of cells was determined. The cell concentration in the sample was evaluated using the standard cell counting procedure. […]
After irradiation, the tumor volumes were monitored every two days. […] The length and width of the tumors was measured using a digital caliper. The tumor volumes were determined by applying the following formula: […]
Data set [2] relates to human endothelial cells with phosphatidylserine exposed by H2O2. The data set is described as follows: Binding of SWNT-annexin V (biotinylated) to human endothelial cells in vitro (streptavidin-HRP/OPD, A450). The method, then:
Purified recombinant annexin V was labeled with biotin for detection (SureLINK chromophoric biotin labeling kit; KPL, Gaithersburg, Md.) with a 40-molar excess of biotin. Biotin labeling of annexin V has been found previously not to impair the PS-binding of annexin V. The following procedure was used to measure the binding of the SWNT-annexin V (biotinylated) to human endothelial cells in vitro.
Human endothelial cells (American Type Culture Collection, Manassas, Va.) were grown as monolayers in T-75 flasks. […] The cells were fixed by adding 100 μl of phosphate buffered saline (PBS) buffer containing 0.25% glutaraldehyde and Ca^2+ (2 mM). Excess aldehyde groups were quenched by incubating with 50 mM of NH4Cl (100 μl) diluted in PBS buffer containing Ca^2+ (2 mM) for 5 minutes. The SWNT-annexin V conjugate was diluted in 0.5% BSA diluted in PBS buffer and Ca^2+ (2 mM) with an initial concentration of […]. This concentrated fusion protein solution was serially diluted 2-fold until a final concentration of 6.7 μM. SWNT-CMC-annexin V (300 μl) was added to wells in the increasing concentration of SWNT-CMC-annexin V. For each concentration of SWNT-CMC-annexin V, the experiment was done in duplicate and incubated for 2 hours. Plates were washed with 0.5% BSA diluted in PBS buffer and Ca^2+ (2 mM) (300 μl). 300 μl of streptadivin-HRP (horseradish peroxidase) (2 μg/ml) was added and incubated for 1 hour at room temperature. The plate was then washed with PBS (300 μl), and the chromogenic substrate O-phenylenediamine (OPD, 300 μl) was added and incubated for 30 minutes. 100 μl of the supernatant was then transferred to 96-well plates, and absorbance was measured at 450 nm (Biotek KC4 microtiter plate reader) using a blank that omits the addition of SWNT-annexin V described above.
The data obtained above for the binding of SWNT-CMC-annexin V to human endothelial cells in vitro was used in the determination of the dissociation constant (Kd). […]

Data set [3] has as its system human endothelial cells.
Experimental: The effects of irradiation of SWNTs bound to endothelial cells were tested in vitro. […] The following procedure was used to treat human endothelial cells in vitro with SWNT-CMC-annexin V bound.
Cells were grown using F12K media containing 10% FBS until they reach 85% confluence in T-75 flasks, and the cells were then counted using a hemocytometer. Cancer cells (5×10^4) were transferred to 24 well plates (6 plates, with 3 wells per plate containing cells) and grown until 85% confluence was reached. Two extensive dialyses were performed (with a total dilution factor of 1,000,000×) in order to remove the sodium azide from the SWNT-CMC-biotinylated annexin V. The first dialysis for 3 hours (1000×) was performed using modification buffer (100 mM sodium phosphate, 150 mM NaCl, pH 7.2-7.4). The buffer was changed and the dialysis continued for 4 more hours. 1 ml of the suspension of SWNT-CMC-biotinylated annexin V was used. PS was exposed on the surface of cells by the addition of hydrogen peroxide (1 mM), and the cells were treated with 300 μl binding buffer containing the F12K media containing 1 mM of H2O2 for 1 hour at 37° C. The plates were washed 4× with F12K media (containing 10% FBS) (300 μl), and SWNT-CMC-biotinylated-annexin V (300 μl) was added to wells at a concentration of 20 nM. In order to obtain this concentration, the protein was diluted using F12K media (containing 10% FBS plus 2 mM Ca^2+). For each plate, the experiment was done in triplets. The plates were incubated for 2 hours in the incubator and then washed 4× with F12K media (containing 10% FBS plus 2 mM Ca^2+) (300 μl). […] Cell viability was evaluated one hour later by adding Alamar Blue in an amount equal to 10% of culture media (30 μl of Alamar Blue+300 μl of media) volume to the wells. […] Fluorescence was then measured at 590 nm (using excitation at 530 nm). […] The cells that were attached were treated with trypsin, and the cells were combined in the 96-well plates and counted in a hemocytometer. […]
The subject of data set [4] is human endothelial cells. Description: Laser irradiation of human endothelial cells with SWNT-Fmoc-NH-PEG-NHS-annexin V bound (Alamar Blue). In kind it is cell-based. To be noted: 20 nM protein. Here is the method:
The procedure described above was applied using the human annexin V protein but any Annexin described herein could be used. […] The media was warmed up in the incubator at 37° C. and then removed from the wells. […] For each plate, the experiment was performed in triplets.
The samples (300 μl/well) were then transferred to a 96-microtiter plate, and fluorescence was measured at 590 nm (using excitation at 530 nm).

For data set [5], the system named is human endothelial cells. The data set is described as follows: Laser treatment of human endothelial cells with SWNT-annexin V complex, SDS method (Alamar Blue). In kind it is cell-based. Here is the method:
SWNTs with annexin V conjugated using the Fmoc-NH-PEG-NHS linker added via the SDS method were used in a laser test with endothelial cells. […] The endothelial cells were transferred to 24 well plates (5×10^4 cells per well) and grown until 100% confluence was reached. A separate plate was used for each different treatment. The media was warmed up in the incubator at 37° C., and the media was removed from the wells. […] For each plate, the experiment was done with two or three wells.
300 μl of F12K media was added with 2 mM Ca^2+ to the wells, and the laser treatment was performed on each well using a beam with a diameter of 1.8 cm, power level of 3.9 W, and beam time of 130 s (energy density=199 J/cm^2).
Then, SWNT-annexing V was added to the wells as described above.

Data set [6] deals with non-small-cell lung cancer (NSCLC) with pleural spread. To be noted: 22 patients, photosensitizer 24 hours before surgery, 603 nm light; cited from earlier work.
The conditions of data set [7]: patients; cited from earlier work.
Setting [8] is: human endothelial cells, FIG. 1.

Turning to `O=P1(N(CCCl)CCCl)NCCCO1` (centres unmarked) [CY, cyclophosphamide], the “effect of addition of CY on tumor volume reduction” value in data set [1] (CY 50 mg/kg i.p. added to SWNTs+Laser) is “did not translate into a significant difference”. Further, the “effect of CY on metastatic nodules compared to laser+SWNT treatment alone” value in data set [1] (lungs) is “did not lead to fewer metastatic nodules”. Also, the “effect of addition of CY on survival” value in data set [1] (treatment group that received CY compared to the one that did not) is recorded as “increased survival”.
For “SWNT-CMC-annexin V: Recombinant annexin V (biotinylated) conjugated via EDC/NHS to carboxymethylcellulose (30 kDa) adsorbed to single-walled carbon nanotubes”, in data set [2] (binding to human endothelial cells in vitro, PS exposed with 1 mM H2O2, fit with Prism 5, read-out: dissociation constant (Kd)), the equilibrium dissociation constant (Kd) came to 2.9 nM. Also, the “binding to the cells” value in data set [2] (setting [8]) was “binding to the cells increased as the annexin V-SWNT complex concentration increased”. Moreover, in data set [2] (setting [8]), the “concentration above which transition from negligible binding to measurable binding occurred” value is on record as over 1000 pM. For the same compound, the “difference in RFU between cells with nanotubes and cells without nanotubes” value in data set [3] is “no significant difference”; in data set [3] (power level of 2 W/cm^2, 980 nm, 20 J/cm^2), “no significant difference”. Further, the “cell number at 4 W/cm^2 relative to 0 W/cm^2” value in data set [3] (20 nM complex bound, 980 nm, 20 J/cm^2, hemocytometer) was found to be 50%.
As to “SWNT-Fmoc-NH-PEG-NHS-annexin V: Human annexin V attached via Fmoc-NH-PEG-NHS linker adsorbed to SWNTs dispersed with sodium cholate”, the “effect on the cells (Alamar Blue)” value is “killing virtually all of the cells” in data set [4] (with laser 980 nm 1.50 W/cm^2 for 130 seconds (195 J/cm^2), H2O2, 85% confluence) and “no effect on the cells” in data set [4] (without laser).
Regarding “SWNT-annexin V: SWNTs with annexin V conjugated using the Fmoc-NH-PEG-NHS linker added via the SDS method”, the cell viability result in data set [5] (0.89 mg/L SWNT, 299 J/cm^2, hydrogen peroxide, versus 199 J/cm^2) is “again lower”. The “reduction of cell viability compared with untreated cells” value in data set [5] (0.89 mg/L SWNTs, laser energy 199 J/cm^2, hydrogen peroxide, 100% confluent cells) turned out to be 60%. For the same compound, the “effect on cell viability” value in data set [5] (laser at 199 J/cm^2, 0.06-0.89 mg/L SWNT, no H2O2, significant (p<0.05) at 0.89 mg/L) is on record as “concentration-dependent effect on cell viability”. For the same compound, the “effect on the cells (Alamar Blue)” value in data set [5] (without laser (plate 2, 0.06 mg/L SWNT)) is listed as “no effect on the cells”.
On to porfimer sodium [porfirmer sodium], for which the median survival in data set [6] is listed as 21 months. Moreover, the side effect result in data set [7] was “prolonged skin photosensitivity”.

Usually Kd stands for the equilibrium constant for the complex coming apart.
